Results taken from PMC7394005, “Assessing the Selectivity of FXR, LXRs, CAR, and RORγ Pharmaceutical Ligands With Reporter Cell Lines” (Frontiers in Pharmacology, 2020).
Where two headings read alike, the source gives them in different places.

Tests used:
Format in all cases: cell-based
human LXRα = biological target: T1, human LXRα (Homo sapiens, UniProt Q13133); assay: HG5LN GAL4-LXRα reporter cell line, agonist mode; details: for LXRα % max act: maximal luciferase activity at 10^-5 M (10^-6 M for * and 3 10^-6 M for ** compounds), 100% = 1 µM T0901317, DMSO 8 ± 1
T1 construct: LXRα (A187-E447); expressed in transfected cells; host or cells: HG5LN (HeLa cells carrying the (GAL4RE)5-βGlob-Luc-SVNeo reporter)
T1 sequence (Q13133 187-447): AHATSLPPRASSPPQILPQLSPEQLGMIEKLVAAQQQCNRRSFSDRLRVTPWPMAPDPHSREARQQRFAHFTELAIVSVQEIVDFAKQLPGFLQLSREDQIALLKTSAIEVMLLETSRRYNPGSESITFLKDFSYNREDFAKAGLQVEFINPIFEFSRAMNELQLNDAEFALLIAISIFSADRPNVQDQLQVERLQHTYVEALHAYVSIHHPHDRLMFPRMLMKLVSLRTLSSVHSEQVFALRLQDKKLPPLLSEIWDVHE
Description: (§1) To construct GAL4-NR chimeras, individual LBDs of human FXR (R193-Q486), LXRα (A187-E447), LXRβ (G199-E461), CAR (M76-S348), and RORγ (S97-K518) were amplified by PCR with primers containing XhoI and SacI restriction sites (FXR), XhoI and BamHI (LXRs, CAR, RORγ) and inserted in pSG5-GAL4(DBD)-puromycin plasmid. To construct GAL4-CAR (+ APYLT) (M76-S353), the five amino acids APYLT were inserted by overlap extension PCR between amino acids P270 and D271 of CAR.
(§2) To characterize the specificity of chemicals for human FXR, LXRα, LXRβ, CAR and RORγ, we established in a similar manner HG5LN FXR, LXRα, LXRβ, CAR WT, CAR (APYLT) and RORγ reporter cell lines. […] These cells were stably transfected by pSG5-GAL4 (DBD)-NRs (LBD)-puromycin plasmid and selected in presence of 0.5 µg/ml puromycin. […] From each HG5LN NR cells, 5 to 10 clones were chosen for their ligand inducibility of luciferase expression. […] The most inducible clones were expanded and rechecked for inducibility and aliquots were frozen at different passages. One clone per receptor was maintained in culture and used for ligand screening. HG5LN cells were cultured in Dulbecco’s modified Eagle’s medium (DMEM): Nutrient Mixture F-12 (DMEM/F-12) containing phenol red and 1 g/l glucose and supplemented with 5% fetal bovine serum, 100 units/ml of penicillin, 100 µg/ml of streptomycin and 1 mg/ml geneticin, in 5% CO2 humidified atmosphere at 37°C. Stably transfected cell lines derived from HG5LN cells were cultured in the same culture medium supplemented with 0.5 µg/ml puromycin.
(§3) Individual reporter cell lines were seeded at a density of 40,000 cells per well in 96-well white opaque tissue culture plates (Greiner CellStar) in Dulbecco’s Modified Eagle Medium: Nutrient Mixture F-12 (DMEM/F-12) without phenol red and 1 g/l glucose and supplemented with 5% stripped fetal bovine serum, 100 units/ml of penicillin, 100 µg/ml of streptomycin (test medium). Chemicals to be tested were added 24h later, and cells were incubated at 37°C for 16h. Experiments were performed in quadruplicates. At the end of the incubation period, culture medium was replaced with test medium containing 0.3 mM luciferin solution. Luciferase activity was measured for 2s in intact living cells after 10 min stabilization using a Micro Beta Wallac luminometer (PerkinElmer). EC50 values were calculated using GraphPad Prism (GraphPad Software Inc).
(§4) Chemicals tested for agonism on FXR, LXRs, CAR (+ APYLT), PXR, and antagonism on CAR and RORγ were tested alone, without addition of any other ligand.
(§5) In the transactivation assay, each compound was tested at various concentrations in three independent experiments at least. For each experiment, tests were performed in quadruplicates for each concentration, and data are expressed by means values with standard deviations. Individual agonist dose–response curves, in the absence and presence of antagonist, were fitted using the sigmoid dose-response function of a graphics and statistics software program (GraphPad Prism, version 5.0). EC50 (effective concentration for half-maximal luciferase activity) and IC50 (half-maximal inhibitory concentration) values were calculated from equations used to fit the data in this graphic software. Transactivation data are presented as EC50 and IC50 values for each compound tested. To analyze significances, we compared individual compound treatments with controls using one-way analysis of variance (ANOVA) with the help of GraphPad Prism software.

human FXR = biological target: T2, human FXR (Homo sapiens, UniProt Q96RI1); assay: HG5LN GAL4-FXR reporter cell line, antagonist mode in presence of GW4064; details: for FXR (GW4064 100 nM) % min act: in presence of GW4064 100 nM (80% of maximal activity), at 10^-5 M (10^-6 M *, 3 10^-6 M **)
T2 construct: FXR (R193-Q486); expressed in transfected cells; host or cells: HG5LN (HeLa cells carrying the (GAL4RE)5-βGlob-Luc-SVNeo reporter)
T2 sequence (Q96RI1 193-486): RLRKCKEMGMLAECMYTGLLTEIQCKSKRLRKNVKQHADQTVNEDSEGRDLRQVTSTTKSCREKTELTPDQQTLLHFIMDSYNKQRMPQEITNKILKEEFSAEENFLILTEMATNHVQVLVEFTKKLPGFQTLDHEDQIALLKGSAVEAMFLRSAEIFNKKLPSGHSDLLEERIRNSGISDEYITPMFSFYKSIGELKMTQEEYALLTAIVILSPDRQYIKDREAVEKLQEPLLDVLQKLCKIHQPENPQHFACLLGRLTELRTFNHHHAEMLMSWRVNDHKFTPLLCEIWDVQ
Description: as §1, §2, §3, §4, §5

human LXRβ = biological target: T3, human LXRβ (Homo sapiens, UniProt P55055); assay: HG5LN GAL4-LXRβ reporter cell line, antagonist mode in presence of T0901317; details: for LXRβ (T0901317 100 nM) % min act: in presence of T0901317 100 nM (80% of maximal activity), at 10^-5 M (10^-6 M *, 3 10^-6 M **)
T3 construct: LXRβ (G199-E461); expressed in transfected cells; host or cells: HG5LN (HeLa cells carrying the (GAL4RE)5-βGlob-Luc-SVNeo reporter)
T3 sequence (P55055 198-460 limits assumed): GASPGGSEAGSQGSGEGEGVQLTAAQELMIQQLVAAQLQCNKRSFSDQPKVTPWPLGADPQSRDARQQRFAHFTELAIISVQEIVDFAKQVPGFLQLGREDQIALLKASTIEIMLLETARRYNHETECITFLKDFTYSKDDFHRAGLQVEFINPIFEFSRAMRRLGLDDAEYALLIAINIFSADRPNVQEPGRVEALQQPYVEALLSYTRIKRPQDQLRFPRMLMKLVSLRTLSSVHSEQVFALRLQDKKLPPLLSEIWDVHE
Description: as §1, §2, §3, §4, §5

[1] = HG5LN GAL4-LXRα cells, tested alone, NE = No effect, read-out: LXRα EC50
[2] = read-out: FXR (GW4064 100 nM) IC50, in presence of GW4064 100 nM, NE = No effect
[3] = read-out: LXRβ (T0901317 100 nM) IC50, in presence of T0901317 100 nM, NE = No effect

Row | EC50 (human LXRα; [1]) [µM] | IC50 (human FXR; [2]) [µM] | IC50 (human LXRβ; [3]) [µM] | Compound | other results
1 | > 10 | > 10 | > 10 | CCOC(=O)Nc1ccc2c(c1)N(C(=O)CN(CC)CC)c1ccccc1CC2 [CINPA1] | 
2 | > 10 |  | > 10 | Clc1ccccc1C(c1ccccc1)(c1ccccc1)n1ccnc1 [Clotrimazole, clotrimazole] | 
3 | > 10 | 0.148 ± 0.068 | > 10 | COc1cccc(Cn2cc(C(=O)Nc3ccc(C)c(S(=O)(=O)N4CCOCC4)c3)c(-c3ccc(C)cc3)n2)c1 [DY268] | FXR (GW4064 100 nM) % min act (human FXR; NE = No effect): 14%
4 | > 10 | > 10 | > 10 | CC(C)(C)c1nc(-c2cccc(NS(=O)(=O)c3c(F)cccc3F)c2F)c(-c2ccnc(N)n2)s1 [Dabrafenib] | 
5 | > 10 | 0.687 ± 0.103 | > 10 | COC(=O)/C=C/c1cccc(N(Cc2ccc(-c3ccc(N(C)C)cc3)cc2)C(=O)C2CCCCC2)c1 [Feraxamine] | FXR (GW4064 100 nM) % min act (human FXR; NE = No effect): 33%
6 | 0.176 ± 0.048 |  |  | O=C(O)Cc1cccc(OCCCN(Cc2cccc(C(F)(F)F)c2Cl)CC(c2ccccc2)c2ccccc2)c1 [GW3965] | LXRα % max act (human LXRα; NE = No effect): 98%; IC50 (human FXR): 5.8 ± 0.313 µM; FXR (GW4064 100 nM) % min act (human FXR; NE = No effect): 25%
7 | > 10 |  | > 10 | CC(C)c1onc(-c2c(Cl)cccc2Cl)c1COc1ccc(/C=C/c2cccc(C(=O)O)c2)c(Cl)c1 [GW4064] | 
8 | > 10 | > 10 | > 10 | Cc1oc2ccccc2c1CNC(=O)NCc1cccs1 [S07662] | 
9 | > 10 | > 10 | > 10 | CC(=O)Nc1nc(C)c(S(=O)(=O)Nc2ccc(C(O)(C(F)(F)F)C(F)(F)F)cc2)s1 [SR1001] | 
10 |  | > 10 |  | Cc1cc(C)c(S(=O)(=O)N(CCc2cccc(Br)c2)Cc2ccc(-c3cccc(S(C)(=O)=O)c3)cc2)c(C)c1 [SR9243] | IC50 (human LXRβ): 0.059 ± 0.013 µM; LXRβ (T0901317 100 nM) % min act (human LXRβ; NE = No effect): 2%
11 | > 10 | > 10 | > 10 | CCOP(=O)(OCC)C(=Cc1cc(C(C)(C)C)c(O)c(C(C)(C)C)c1)P(=O)(OCC)OCC [SR12813] | 
12 | > 10 | > 10 | > 10 | SPA70 | 

Row | Compound | EC50 (human LXRα; [1]) [µM] | IC50 (human FXR; [2]) [µM] | IC50 (human LXRβ; [3]) [µM] | other results
13 | Clc1ccc(-c2nc3sccn3c2/C=N/OCc2ccc(Cl)c(Cl)c2)cc1 [CITCO] | > 10 | > 10 | > 10 | 
14 | Cc1cc(C)c(S(=O)(=O)N(Cc2ccc(-c3cccc(S(C)(=O)=O)c3)cc2)Cc2ccc(C(F)(F)F)o2)c(C)c1 [GSK2033] |  | > 10 |  | IC50 (human LXRβ): 0.01 ± 0.003 µM; LXRβ (T0901317 100 nM) % min act (human LXRβ; NE = No effect): 2%
15 | O=C(Nc1ccc(C(O)(C(F)(F)F)C(F)(F)F)cc1)c1ccccc1Cl [SR0987] | > 10 | > 10 | > 10 | 
16 | O=C(Nc1ccc(C(O)(C(F)(F)F)C(F)(F)F)cc1)c1ccc(C(F)(F)F)cc1 [SR1078] | > 10 | > 10 | > 10 | 
17 | CCOC(=O)c1ccc(CN(Cc2ccc(-c3cccc(S(C)(=O)=O)c3)cc2)S(=O)(=O)c2c(C)cc(C)cc2C)o1 [SR9238] |  | > 10 |  | IC50 (human LXRβ): 0.005 ± 0.001 µM; LXR β-subtype specificity (fold, over α subtype) (human LXRβ; from IC50 values on LXRα and LXRβ): 5 fold; LXRβ (T0901317 100 nM) % min act (human LXRβ; NE = No effect): 1%
18 | Fc1ccc(-c2c3cccc(C(F)(F)F)c3nn2Cc2ccc(F)cc2Cl)cc1 [WAY252623] |  | > 10 |  | EC50 (human LXRα): 0.595 ± 0.068 µM; LXRα % max act (human LXRα; NE = No effect): 67%
